Experimental data published in patent publication US20250002526A1, “PHARMACEUTICAL COMPOSITION HAVING ANTI-CANCER IMMUNOSTIMULATING EFFECT AND/OR IMMUNE CHECKPOINT INHIBITION POTENTIATING EFFECT” (KYUSHU UNIVERSITY, NATIONAL UNIVERSITY CORPORATION, priority 2021, published 2025).
Entries after “also recorded” stand apart in the source; their conditions may differ.

Tests used:
[1] = target: T1, recombinant human SULT2B1b protein (Homo sapiens, UniProt O00204); assay: SULT assay (in vitro SULT2B1b enzymatic activity measurement); assay type: biochemical
T1 sequence (O00204 1-365): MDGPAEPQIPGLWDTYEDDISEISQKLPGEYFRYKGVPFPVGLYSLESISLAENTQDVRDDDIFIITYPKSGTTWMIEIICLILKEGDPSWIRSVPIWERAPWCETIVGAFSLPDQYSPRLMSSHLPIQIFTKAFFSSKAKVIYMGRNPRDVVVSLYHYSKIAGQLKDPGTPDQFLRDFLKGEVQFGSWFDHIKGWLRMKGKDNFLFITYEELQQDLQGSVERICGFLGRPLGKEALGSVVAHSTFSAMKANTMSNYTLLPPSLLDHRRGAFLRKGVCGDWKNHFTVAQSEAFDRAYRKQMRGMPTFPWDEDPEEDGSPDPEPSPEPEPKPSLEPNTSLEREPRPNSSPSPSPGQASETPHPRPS
Experimental: For screening for a SULT2B1b inhibitor, enzymatic activity measurement for SULT2B1b was carried out by a method described in a previous report (NPL 2) with slight modifications.
The reaction solution (50 μl) was composed of 1 to 5 μg of recombinant human SULT2B1b protein, 10 μM [^3H]cholesterol (approximately 4,000 dpm/pmol), 10 mM Tris-HCl (pH 7.5, containing 5 mM MgCl2) containing 0.1 mM 3′-phosphoadenosine 5′-phosphosulfate (PAPS), 0.2 mM 2-hydroxypropyl-β-cyclodextrin, and 5% (v/v) ethanol. Recombinant human SULT2B1b protein was pre-incubated with 1 μl of a test compound (final concentration: 40 or 200 μM) or DMSO (control) at room temperature for 15 minutes, 2 mM PAPS (2.5 μl) was then added to initiate reaction, the resultant was reacted at 37° C. for 15 minutes, and 0.8 ml of ethanol was added to terminate the reaction.
The solution after the reaction was subjected to thin-layer chromatography (TLC) for separation, and then to a liquid scintillation counter to quantify radiolabeled CS.
From the percentage to the amount ([…]) of radiolabeled CS generated through reaction in the absence of the test compound (DMSO) (control), the SULT2B1b activity (% activity) of SULT2B1b protein in the presence of the test compound was evaluated, and the effect of the test compound to inhibit SULT2B1b-mediated CS production (CS production inhibitory effect) was evaluated.
In enzyme assay, SULT assay was performed with use of cholenoic acid as a compound to be tested at different cholesterol and PAPS concentrations (wherein 0.5 to 1 μg of recombinant human SULT2B1b protein was used, the preincubation time and reaction time were each 10 minutes), and the results were fitted to the Michaelis-Menten equation by using Prism 9 (GraphPad Software, Inc.) to perform enzyme kinetic analysis for the inhibition by cholenoic acid.
SULT assay was performed for the compounds as test compounds by the method described in (14) of “II. Experimental procedure” in Experiment Example 1 to evaluate the SULT2B1b inhibitory effects of the compounds.

E0771-SULT-PD-L1 cells = assay: In vivo tumor growth of E0771-SULT-PD-L1 cells with anti-PD-L1 antibody treatment; design: species or system mouse; conditions: oral cholenoic acid combined with anti-PD-L1 antibody, days 9, 12 and 15 after transplantation
Experimental: As described later for each experiment, 200 μl of an anti-mouse PD-L1 antibody (10F.9G2, 0.5 mg/ml, BioXCell) or a control of the matched isotype (LTF-2, 0.5 mg/ml, BioXCell) was intraperitoneally injected into tumor-bearing mice (see experimental results (3)).
Cholenoic acid was suspended in 0.5% (w/v) methylcellulose 400 solution (FUJIFILM Wako Pure Chemical Corporation) at a proportion of 50 mg/ml, and a 200-μl portion (10 mg) of the suspension was orally administered to mice (see experimental results (6)). To examine the effect on the tumor infiltration of OTII cells or OTI T cells, 5 mg of cholenoic acid was orally administered three times at intervals of 6 hours in 2 days before the assay. […]
(§1) The growth of tumors was monitored by measuring the vertical diameters of each tumor with a caliper twice a week and calculating the tumor volumes from the following expression.

E0771-SULT-OVA cells = assay: In vivo tumor growth of E0771-SULT-OVA cells with OTII T cell transfer; design: species or system mouse; conditions: activated OTII T cells i.v. day 9, cholenoic acid oral days 12, 13 and 14
Experimental: (§2) In T cell transfer experiment, activated OTII CD4^+ T cells (2×10^6) and OTI CD8^+ T cells (5×10^5) were intravenously injected into tumor-bearing mice (see experimental results (4)).
(§3) Cholenoic acid was suspended in 0.5% (w/v) methylcellulose 400 solution (FUJIFILM Wako Pure Chemical Corporation) at a proportion of 50 mg/ml, and a 200-μl portion (10 mg) of the suspension was orally administered to mice (see experimental results (6)). To examine the effect on the tumor infiltration of OTII cells or OTI T cells, 5 mg of cholenoic acid was orally administered three times at intervals of 6 hours in 2 days before the assay.
(§4) CD4^+ T cells or CD8^+ T cells were magnetically selected from the spleen and peripheral lymph nodes of OTII and OTI TCR transgenic mice with Dynabeads mouse CD4 (Invitrogen), and then treated with DETACHaBEAD™ mouse CD4 (Invitrogen) or separated with a CD8a^+ T Cell Isolation Kit (Miltenyi Biotec). […]
as §1

E.G7-OVA-SULT cells = assay: In vivo tumor growth of E.G7-OVA-SULT cells with OTI T cell transfer; design: species or system mouse; conditions: activated OTI T cells i.v. day 10, cholenoic acid oral days 13, 14 and 15
Experimental: as §2, §3, §4, §1

C[C@H](CCC(=O)O)[C@H]1CC[C@H]2[C@@H]3CC=C4C[C@@H](O)CC[C@]4(C)[C@H]3CC[C@]12C [Compound 1, (R)-4-((3S,8S,9S,10R,13R,14S,17R)-3-hydroxy-10,13-dimethyl-2,3,4,7,8,9,10,11,12,13,14,15,16,17-tetradecahydro-1H-cyclopenta[a]phenanthren-17-yl)pentanoic acid]
inhibition mode with respect to PAPS (sulfate donor) ([1]; Michaelis-Menten / Lineweaver-Burk, 10 μM cholesterol): uncompetitively
inhibition mode with respect to cholesterol (substrate) ([1]; Michaelis-Menten / Lineweaver-Burk, 100 μM PAPS): non-competitively
IC50 ([1]; recombinant human SULT2B1b, read-out: IC50 value (enzyme assay)): 24.8 µM
activity at 200 µM ([1]; test compound 200 μM, relative to DMSO control (100%), read-out: in vitro SULT2B1b assay % activity at 200 μM): 20.6%
growth of E0771-SULT-PD-L1 cells (tumor volume) (E0771-SULT-PD-L1 cells): renders E0771-SULT-PD-L1 cells susceptible to immune checkpoint inhibition; also recorded: causes the growth of E0771-SULT-PD-L1 cells (tumor volume) to be suppressed
growth of E0771-SULT-OVA cells / anti-tumor immunity of OTII T cells (E0771-SULT-OVA cells): recovery of the effect of OTII cell or OTI T cell transplantation; also recorded: the growth of E0771-SULT-OVA cells was suppressed
growth of E.G7-OVA-SULT cells / anti-tumor immunity of OTI T cells (E.G7-OVA-SULT cells): recovery of the effect of OTII cell or OTI T cell transplantation; also recorded: the growth of E.G7-OVA-SULT cells was suppressed
